Measurements from article PMC11181328 (Journal of Medicinal Chemistry, 2024).
Structures can show the parent of a compound that is named as a salt.

Columns and labels:
DOR [1] = biological target: T1, DOR (Homo sapiens, UniProt P41143); test: [35S]-GTPγS functional assay, DOR; type: biochemical; conditions: for EC50: hDOR-CHO membranes; for Emax: percent of SNC80 full agonist control
T1 construct: expressed in transfected cells; membrane homogenate

male Swiss Webster mice [2] = test: Warm-water tail immersion assay, agonism (single dose screen and potency); type: in vivo, mouse; conditions: for ED50: Mus musculus, sc, read-out: potency ED50 [95% CI] mg/kg, s.c., 20 min prior to tail withdrawal latency measurement, male Swiss Webster mice; for percent MPE / antinociception compared to the vehicle group: single dose 10 mg/kg s.c.; for percent MPE: withdrawal latency 20 min after administration; for antinociception compared to the vehicle group: 20 min
KOR [3] = biological target: T2, KOR (Mus musculus, UniProt P33534); test: Competitive radioligand binding assay, KOR; conditions: for radioligand binding affinity (Ki, nM) KOR: [3H]diprenorphine, mKOR-CHO membranes; for selectivity ratio δ/κ / selectivity ratio μ/κ: ratio of Ki values
T2 construct: expressed in transfected cells; membrane homogenate

KOR [4] = biological target: T2, KOR; test: [35S]-GTPγS functional assay, KOR; type: biochemical; conditions: for EC50: mKOR-CHO membranes; for Emax: percent of U50,488 full agonist control
DOR [5] = biological target: T1, DOR; test: Competitive radioligand binding assay, DOR
MOR [6] = biological target: T3, MOR (Mus musculus, UniProt P42866); test: Competitive radioligand binding assay, MOR; parameters: expressed in transfected cells; membrane homogenate; conditions: for radioligand binding affinity (Ki, nM) MOR: [3H]naloxone, mMOR-CHO membranes
MOR [7] = biological target: T3, MOR; test: [35S]-GTPγS functional assay, MOR; type: biochemical; parameters: expressed in transfected cells; membrane homogenate; conditions: for EC50: mMOR-CHO membranes; for Emax: read-out: [35S]-GTPγS functional activity MOR Emax (%)
in vitro [8] = conditions: Sprague-Dawley, rat, s9
in vitro [9] = conditions: human, s9
male Swiss Webster mice [10] = test: Warm-water tail immersion assay, time course study; type: in vivo, mouse; conditions: morphine 10 mg/kg s.c.

For `CN(C(=O)/C=C/c1ccco1)[C@H]1CC[C@@]2(O)[C@H]3Cc4cccc5c4[C@@]2(CCN3CC2CC2)[C@H]1O5` [Compound 17, 17-Cyclopropylmethyl-4,5α-epoxy-6α-[(2E)-3′-(furan-2″-yl)N-methylprop-2-enamido]-14β-hydroxymorphinan Hydrochloride], the EC50 (DOR [1]) was 440 ± 32.2 nM, the ED50 (male Swiss Webster mice [2]) was 7.8 mg/kg and the “percent MPE” value (male Swiss Webster mice [2]) was no less than 80%. The Ki (KOR [3]) was 0.62 ± 0.04 nM, the “radioligand binding affinity (Ki, nM) KOR” value (KOR [3]) was “subnanomolar” and the “selectivity ratio δ/κ” value (KOR [3]) was 110. For the same molecule, the “selectivity ratio μ/κ” value (KOR [3]) was 27, the EC50 (KOR [4]) was 5.97 ± 0.42 nM and the Emax (KOR [4]) was 110 ± 7.9%. It also gave a Ki (DOR [5]) of 68.4 ± 11.2 nM, a Ki (MOR [6]) of 16.8 ± 1.34 nM and an EC50 (MOR [7]) of 125 ± 17.1 nM. For the same molecule, the Emax (MOR [7]) was 22.9 ± 2.01%.
For `O=C(/C=C/c1ccco1)N[C@H]1CC[C@@]2(O)[C@H]3Cc4cccc5c4[C@@]2(CCN3CC2CC2)[C@H]1O5` [Compound 18, 17-Cyclopropylmethyl-4,5α-epoxy-6α-[(2E)-3′-(furan-2″-yl)prop-2-enamido]-14β-hydroxymorphinan Hydrochloride], the EC50 (DOR [1]) was 1240 ± 147 nM, the Emax (DOR [1]) was 75 ± 5.1% and the “antinociception compared to the vehicle group” value (male Swiss Webster mice [2]) was “lack of significant antinociceptive effect”. The Ki (KOR [3]) was 249 ± 32 nM, the “selectivity ratio δ/κ” value (KOR [3]) was 2 and the EC50 (KOR [4]) was 1370 ± 89 nM. It also gave an Emax (KOR [4]) of 85.2 ± 6.52%, a Ki (DOR [5]) of 456 ± 26.4 nM and a Ki (MOR [6]) of 107 ± 8.37 nM. It also gave an EC50 (MOR [7]) of 1510 ± 948 nM and an Emax (MOR [7]) of 16 ± 2.91%.
For `O=C(/C=C/c1ccco1)N[C@@H]1CC[C@@]2(O)[C@H]3Cc4cccc5c4[C@@]2(CCN3CC2CC2)[C@H]1O5` [Compound 20, 17-Cyclopropylmethyl-4,5α-epoxy-6β-[(2E)-3′-(furan-2″-yl)prop-2-enamido]-14β-hydroxymorphinan Hydrochloride], the EC50 (DOR [1]) was 860 ± 148 nM, the Emax (DOR [1]) was greater than 80% and the “antinociception compared to the vehicle group” value (male Swiss Webster mice [2]) was “lack of significant antinociceptive effect”. For the same molecule, the Ki (KOR [3]) was 7.03 ± 0.92 nM, the “selectivity ratio δ/κ” value (KOR [3]) was 78 and the “selectivity ratio μ/κ” value (KOR [3]) was 6. The EC50 (KOR [4]) was 178 ± 18.1 nM, the Emax (KOR [4]) was 99.7 ± 5.88% and the Ki (DOR [5]) was 551 ± 64 nM. It also gave a Ki (MOR [6]) of 42.4 ± 2.34 nM, an EC50 (MOR [7]) of 1140 ± 984 nM and an Emax (MOR [7]) of 12.8 ± 3%.
For `O=C(/C=C/c1ccco1)N[C@H]1CC[C@@]2(O)[C@H]3Cc4ccc(O)c5c4[C@@]2(CCN3CC2CC2)[C@H]1O5` [Compound 22, 17-Cyclopropylmethyl-3,14β-dihydroxy-4,5α-epoxy-6α-[(2E)-3′-(furan-2″-yl)prop-2-enamido]morphinan Hydrochloride], the EC50 (DOR [1]) was 21.1 ± 1.41 nM, the ED50 (male Swiss Webster mice [2]) was 4.08 mg/kg and the “percent MPE” value (male Swiss Webster mice [2]) was no less than 80%. The Ki (KOR [3]) was 1.08 ± 0.03 nM, the EC50 (KOR [4]) was 13.7 ± 2.52 nM and the Ki (DOR [5]) was 8.75 ± 0.58 nM. For the same molecule, the Ki (MOR [6]) was 0.53 ± 0.06 nM, the “radioligand binding affinity (Ki, nM) MOR” value (MOR [6]) was “subnanomolar” and the EC50 (MOR [7]) was 2.97 ± 0.45 nM.
In the case of `O=C(/C=C/c1ccco1)N[C@@H]1CC[C@@]2(O)[C@H]3Cc4ccc(O)c5c4[C@@]2(CCN3CC2CC2)[C@H]1O5` [Compound 24, 17-Cyclopropylmethyl-3,14β-dihydroxy-4,5α-epoxy-6β-[(2E)-3′-(furan-2″-yl)prop-2-enamido]morphinan Hydrochloride], the EC50 (DOR [1]) is reported as 13.1 ± 2.09 nM, the ED50 (male Swiss Webster mice [2]) is reported as 3.32 mg/kg and the “percent MPE” value (male Swiss Webster mice [2]) is reported as no less than 80%. For the same molecule, the Ki (KOR [3]) was 0.17 ± 0.02 nM, the “radioligand binding affinity (Ki, nM) KOR” value (KOR [3]) was “subnanomolar” and the EC50 (KOR [4]) was 0.54 ± 0.11 nM. For the same molecule, the Ki (DOR [5]) was 12.8 ± 2.37 nM, the Ki (MOR [6]) was 0.3 ± 0.02 nM and the “radioligand binding affinity (Ki, nM) MOR” value (MOR [6]) was “subnanomolar”. The EC50 (MOR [7]) was 6.76 ± 1.99 nM.
Work on `O=C(O)Cc1ccccc1Nc1c(Cl)cccc1Cl` [diclofenac, reference compound] yielded a half-life at 1 h, 1 µM (in vitro [8]) of 1.7 h, a microsomal CLint at 1 h, 1 µM (in vitro [8]) of 6.8 µL/min/mg and a half-life at 1 h, 1 µM (in vitro [9]) of 0.308 h. It also gave a microsomal CLint at 1 h, 1 µM (in vitro [9]) of 37.4 µL/min/mg.
For `CN1CC[C@]23c4c5ccc(O)c4O[C@H]2[C@@H](O)C=C[C@H]3[C@H]1C5` [morphine, (-)-Morphine sulfate pentahydrate, reference compound], the “effects back to baseline” value (male Swiss Webster mice [10]) was 5 h, the “time of significant antinociception postinjection” value (male Swiss Webster mice [10]) was 30 to 60 min and the “percent MPE” value (male Swiss Webster mice [2]) was 100%.
